Measured values as given in the OligoGym collection.
Values joined by “and” are separate entries in the source; they are usually repeats but may differ in a detail not shown here. Equal values may be shown once. After the bases stand the sugars from the 5' end (letter, count) and the backbone: PS all phosphorothioate, else s phosphorothioate and o phosphodiester by linkage. Methylation of C is not given here. e = 2'-O-(2-methoxyethyl) (MOE); k = constrained ethyl (cEt); d = 2'-deoxy (DNA); m = 2'-O-methyl

Target: HSD17B13
Conditions: ASO, HepaRG

Sequence | target mRNA inhibition (1 µM) [%] | other results
GTATCTTATAAGACTA (sugars k3 d10 k3, PS) | 81 | target mRNA inhibition (0.02 µM): 50%; target mRNA inhibition (0.078 µM): 61%; target mRNA inhibition (0.313 µM): 68%; target mRNA inhibition (1.25 µM): 87%; target mRNA inhibition (5 µM): 95%
GAATCCAGATCTGCCC (sugars k3 d10 k3, PS) | 29 | 
TCCAATACAGGCCATA (sugars k3 d10 k3, PS) | 62 | 
GAAGTTAGTATAGTTA (sugars k3 d9 k3 e1, PS) | 75 | 
ATGAGGTTTTGATACC (sugars k3 d9 k3 e1, PS) | 20 | 
GTAGTCCTAGGGAGGA (sugars k3 d10 k3, PS) | 77 | target mRNA inhibition (0.02 µM): 20%; target mRNA inhibition (0.078 µM): 50%; target mRNA inhibition (0.313 µM): 62%; target mRNA inhibition (1.25 µM): 75%; target mRNA inhibition (5 µM): 86%
GTTGACCTCAAATGTC (sugars k3 d10 k3, PS) | 0 | 
AGTGTAAGCTGAGAGT (sugars k3 d10 k3, PS) | 71 | 
TCATAGTTTATATGGA (sugars k3 d10 k3, PS) | 44 | 
TATAGTTATCTTCTCA (sugars k3 d10 k3, PS) | 46 | 
TATGACAACTGGAGGT (sugars k3 d10 k3, PS) | 14 | 
ACAATTAACATTCGGC (sugars k3 d10 k3, PS) | 77 | target mRNA inhibition (0.02 µM): 13%; target mRNA inhibition (0.078 µM): 15%; target mRNA inhibition (0.313 µM): 43%; target mRNA inhibition (1.25 µM): 62%; target mRNA inhibition (5 µM): 79%
GTATTTACTTTTAGGG (sugars k3 d10 k3, PS) | 61 | 
AAATATGTCCAGGTTG (sugars kkdddddddddkekek, PS) | 61 | 
CGGCTGGATATACTGT (sugars k3 d10 k3, PS) | 35 | 
TAGTGGACTTCATTAG (sugars k3 d1 m1 d8 k3, PS) | 34 | 
AGTTAATAGGACTAAA (sugars k3 d10 k3, PS) | 13 | 
TTTAAGAGGCATGAAA (sugars k3 d10 k3, PS) | 40 | 
GGGAGGAGGTACTGTC (sugars k3 d10 k3, PS) | 35 | 
TATTATGTGATTGAGT (sugars k3 d10 k3, PS) | 86 | target mRNA inhibition (0.02 µM): 60% and 50%; target mRNA inhibition (0.078 µM): 69%; target mRNA inhibition (0.313 µM): 68%; target mRNA inhibition (1.25 µM): 76%
GCAAAAGGAGCCAGTT (sugars k3 d10 k3, PS) | 57 | 
GTGGATTACATACAAG (sugars k3 d10 k3, PS) | 57 | 
TCCTCCACACCGCGCT (sugars k3 d10 k3, PS) | 20 | 

Sequence | target mRNA inhibition (1 µM) [%] | other results
TCGGTCACCTTTCATA (sugars kkdddddddddkekek, PS) | 63 | 
GAACCTATGTGTGCAC (sugars k3 d10 k3, PS) | 53 | 
TACGATGGAACAAAAA (sugars k3 d10 k3, PS) | 20 | 
TAAAGCAGGCTACTTT (sugars k3 d10 k3, PS) | 9 | 
GTTTTGGGCTAATGAA (sugars k3 d9 k3 e1, PS) | 47 | 
ATAACTACAAGAGGTT (sugars k3 d10 k3, PS) | 64 | 
ATCTTATAAGACTATA (sugars kkdddddddddkekek, PS) | 30 | 
GCATGGCTACAGATTG (sugars k3 d10 k3, PS) | 56 | 
TAATATTGAGGCACTG (sugars k3 d10 k3, PS) | 33 | 
TATTCTGTGGCATGGC (sugars k3 d1 m1 d8 k3, PS) | 55 | 
GACAACCCTTAACAAA (sugars k3 d10 k3, PS) | 24 | 
GTAAAATTATGCCTTG (sugars k3 d10 k3, PS) | 50 | 
CTAAATTTCAGTACCC (sugars k3 d10 k3, PS) | 33 | 
ACTACAAGAGGTTATT (sugars k3 d9 k3 e1, PS) | 58 | 
TCTTGACAATGGTTGA (sugars k3 d10 k3, PS) | 75 | 
TAATACATTAGCAAGC (sugars k3 d9 k3 e1, PS) | 35 | 
CTGTGGCATGGCTACA (sugars k3 d1 m1 d8 k3, PS) | 35 | 
AATATGGGATGAGGTA (sugars kkdddddddddkekek, PS) | 52 | 
GTTGCACCGTTTTGGG (sugars k3 d9 k3 e1, PS) | 45 | 
CCATGCAAAAGCATTC (sugars k3 d10 k3, PS) | 72 | 
CATTCGAATTTCTTCA (sugars k3 d10 k3, PS) | 77 | target mRNA inhibition (0.02 µM): 29%; target mRNA inhibition (0.078 µM): 53%; target mRNA inhibition (0.313 µM): 74%; target mRNA inhibition (1.25 µM): 91%; target mRNA inhibition (5 µM): 97%
AAAGACTTTGAGACTC (sugars k3 d1 m1 d8 k3, PS) | 76 | target mRNA inhibition (0.02 µM): 14%; target mRNA inhibition (0.078 µM): 28%; target mRNA inhibition (0.313 µM): 42%; target mRNA inhibition (1.25 µM): 66%; target mRNA inhibition (5 µM): 77%
TTCCGAAAAAAGTGGA (sugars k3 d10 k3, PS) | 13 | 

Sequence | target mRNA inhibition (1 µM) [%] | other results
GTCTACCTCTAAGTTA (sugars kkdddddddddkekek, PS) | 15 | 
TCATTTTTAATACGAC (sugars k3 d10 k3, PS) | 48 | 
ACAAAATCATGGTGTG (sugars k3 d10 k3, PS) | 26 | 
AACAGTCTTAAACCTT (sugars k3 d9 k3 e1, PS) | 57 | 
AGACCAAGTAGCTTAC (sugars k3 d10 k3, PS) | 42 | 
CAGAGACATGAGGTTT (sugars kkdddddddddkekek, PS) | 61 | 
CTGCTACTCTAGGAGA (sugars k3 d10 k3, PS) | 66 | 
CTCTGGGACCAAGGAT (sugars k3 d9 k3 e1, PS) | 62 | 
GCGATAGATCTCTTCT (sugars k3 d10 k3, PS) | 24 | 
CTGGGATACTATTCTC (sugars k3 d10 k3, PS) | 57 | 
CAGAAAGTTCATTCGA (sugars k3 d10 k3, PS) | 67 | 
TAGAACACTTGCCTCA (sugars k3 d10 k3, PS) | 31 | 
AGTAGATTTGGTAGAG (sugars k3 d10 k3, PS) | 67 | 
TTCCATAAAGCTGGAT (sugars k3 d10 k3, PS) | 5 | 
CTCAAAGCCTGTTGGA (sugars k3 d10 k3, PS) | 10 | 
TCCCAACCAAACTTCC (sugars k3 d10 k3, PS) | 82 | target mRNA inhibition (0.02 µM): 0%; target mRNA inhibition (0.078 µM): 0%; target mRNA inhibition (0.313 µM): 7%; target mRNA inhibition (1.25 µM): 25%; target mRNA inhibition (5 µM): 63% and 50%
GGCATTAGATGGTAAG (sugars k3 d10 k3, PS) | 62 | 
GAAAUTGATACACCAA (sugars k3 d1 m1 d8 k3, PS) | 58 | 
TGATCTCTTAGCTGTG (sugars k3 d10 k3, PS) | 59 | 
TGGCATGGCTACAGAT (sugars k3 d9 k3 e1, PS) | 68 | target mRNA inhibition (0.02 µM): 26%; target mRNA inhibition (0.078 µM): 22%; target mRNA inhibition (0.313 µM): 39%; target mRNA inhibition (1.25 µM): 75%; target mRNA inhibition (5 µM): 70%
AGTCTTGATGTAGTGG (sugars k3 d10 k3, PS) | 63 | 
TAAGTGTAAGAGACAT (sugars k3 d10 k3, PS) | 63 | 
TCTTAAGAGAAGGTGC (sugars k3 d10 k3, PS) | 39 | 

Sequence | target mRNA inhibition (1 µM) [%] | other results
CAAAGATCTGGCCAGT (sugars k3 d10 k3, PS) | 1 | 
TCGGTCACCTTTCATA (sugars k3 d9 k3 e1, PS) | 72 | 
TCCTTTGTATTTCGCT (sugars k3 d10 k3, PS) | 68 | 
TGCAAGTTTATCAGTA (sugars k3 d10 k3, PS) | 70 | target mRNA inhibition (0.02 µM): 28%; target mRNA inhibition (0.078 µM): 32%; target mRNA inhibition (0.313 µM): 62%; target mRNA inhibition (1.25 µM): 86%; target mRNA inhibition (5 µM): 92%
TTCTATCAACCTGCAC (sugars k3 d10 k3, PS) | 62 | 
CCGCACACTGAAGCCA (sugars k3 d10 k3, PS) | 34 | 
CATCAAGACATTCTAG (sugars k3 d10 k3, PS) | 49 | 
TCTCTGGGACCAAGGA (sugars k3 d10 k3, PS) | 56 | 
ACCCGCCCTTAAGTCA (sugars k3 d10 k3, PS) | 48 | 
GCATAAGTTACCAGAG (sugars k3 d10 k3, PS) | 79 | target mRNA inhibition (0.02 µM): 0%; target mRNA inhibition (0.078 µM): 0%; target mRNA inhibition (0.313 µM): 40%; target mRNA inhibition (1.25 µM): 51%; target mRNA inhibition (5 µM): 85%
TGTGAAGAGCTGGTAA (sugars k3 d10 k3, PS) | 41 | 
TCATCGATGGAAGAAG (sugars k3 d10 k3, PS) | 24 | 
CAACCAAACTTCCAGC (sugars k3 d10 k3, PS) | 72 | 
CATAACTTCATAGTGG (sugars k3 d9 k3 e1, PS) | 16 | 
TAAAATAGAGTCGGTC (sugars kkdddddddddkekek, PS) | 68 | 
AGCTGAGAGTTCTACA (sugars k3 d10 k3, PS) | 67 | 
GAAATCTTGTGTAACT (sugars k3 d10 k3, PS) | 69 | target mRNA inhibition (0.02 µM): 0%; target mRNA inhibition (0.078 µM): 4%; target mRNA inhibition (0.313 µM): 37%; target mRNA inhibition (1.25 µM): 71%; target mRNA inhibition (5 µM): 87%
GATTGAATTCACTATC (sugars k3 d10 k3, PS) | 0 | 
AAGATATTGATATACG (sugars k3 d10 k3, PS) | 45 | 
ATAGAGTTGCACCGTT (sugars k3 d1 m1 d8 k3, PS) | 59 | 
ATCTTAAGAGAAGGTG (sugars k3 d10 k3, PS) | 43 | 
AACCCAGTATTCACAA (sugars k3 d10 k3, PS) | 0 | 
